B1: scFv:GyrA: engineered single chain antibody fragment of MsGyrA:C3, monovalent 30 kDa polypeptide, Seq. ID #2, encoded by pVNUHMscFv (protein)
scFv: AQVKLQQSGAELVRPGASVKLSCKASGYSFTVYYIYWVKQRPGQALEWIGEINPSNGGTNFNEKFKTKATLTVDKSTSTVYMQLSSLTSEDSAVYYCTRWGLRRGFAYWGQGTTVTVSSSGGGSGGGGSGGGGSDIELTQSPKSMSMSVGERVTLSCKASENVGTHVSWYQQRPEESPKLLIYGASNRYTGVPDRFTGSGSATDFTLTISNVQAEDLADYHCGQTYSYPFTFGLGTKLEIKRAAAGAPVPYPDPLEPRAA

Key:
[1] = target: DNA gyrase from ciprofloxacin resistant M. smegmatis mc^2155 strain (Mycolicibacterium smegmatis, UniProt A0QNE0+P48354); format: biochemical
[2] = test system: DNA gyrase from ofloxacin resistant clinical isolate of M. tuberculosis (ICC-222)

Molecule	susceptibility of the enzyme to ciprofloxacin [1]	IC50 ([1]; read-out: IC50 (no inhibition up to concentration))	concentration that completely inhibited DNA gyrase [2]
O=C(O)c1cn(C2CC2)c2cc(N3CCNCC3)c(F)cc2c1=O [ciprofloxacin, reference compound]	showed resistance	> 1210 µM	–
B1	–	–	10 nM

Source: patent US20060229438A1, “Monoclonal antibody derived peptide inhibitors for mycobacterial dna gyrase” (priority 2002, published 2006)
